Here are results for seven compounds from US20190262307A1, “IGURATIMOD AS AN MIF INHIBITOR” (THE FEINSTEIN INSTITUTE FOR MEDICAL RESEARCH, priority 2016, published 2019).

Data set [1] relates to adherence-purified human peripheral blood monocytes. Nature of the data set: Glucocorticoid synergy in vitro, adherence-purified monocytes. The data set is classed as cell-based. The note with it: LPS. Here is the method:
Glucocorticoid Synergy in vitro: The methods of Roger et al. and Kerschbaumer et al. were adapted for these experiments (17, 21). […] Cell-free supernatants were collected and analyzed immediately with a murine TNFα ELISA at a 1:10 dilution. THP-1 cells were plated at a density of 2×10^5 cells/well in a 96-well plate and used the same day with the same treatment conditions as RAW 264.7 cells, except that THP-1 cells were incubated with LPS for 16 hours prior to isolation of cell-free supernatants. Supernatants were analyzed using a human TNFα ELISA at a 1:10 dilution. Human peripheral blood mononuclear cells isolated by adherence (described above) were plated at a density of 2×10^5 cells/well in a 96-well plate and used the same day with the same treatment conditions as THP-1 cells. Supernatants were analyzed using a human TNFα ELISA at a 1:20 dilution. […] Cells were treated under the same conditions as THP-1 cells and supernatants were analyzed using a human TNFα ELISA at a 1:10 dilution.
For all above experiments, cytotoxicity was assessed using an MTT assay (1-2 hour incorporation); no significant cytotoxicity effects were observed under any treatment conditions unless otherwise noted.

The conditions of data set [2]: early communications; cited from earlier work.
Data set [3] deals with C57/BL6 and MIF−/− mice, LPS. Nature of the data set: Non-lethal endotoxemia, serum TNFα. The note with it: 90 minutes post-LPS, 20 mg/kg i.p. The data set is classed as in vivo, mouse. The text has this:
Animal Experiments: The Institutional Animal Care and Use Committee of the Feinstein Institute for Medical Research reviewed and approved all animal protocols prior to initiation of experiments. Male BALB/c mice were purchased from the Jackson Laboratory (Bar Harbor, Me.) and used for endotoxemia experiments at ages 8-10 weeks. MIF KO animals were maintained on a C57/BL6 NCr background from Charles River Laboratories (Stone Ridge, N.Y.); these animals were used alongside matched wild-type animals for endotoxemia experiments at ages 8-12 weeks.
Endotoxemia: Endotoxemia was induced by intraperitoneal injection of LPS from E. coli O111:B4 (Sigma). […] Blood was collected by cardiac puncture and allowed to clot 20 minutes at room temperature and 20 minutes at 4° C.; sera were isolated by centrifugation at 300×g for 10 minutes and stored at −20° C. for further analysis by TNFα ELISA (1:3 dilution).

In data set [4] the test system is neonates pups with CDH. Nature of the data set: Nitrofen congenital diaphragmatic hernia (CDH) model, neonate pups. The data set is classed as in vivo. The note with it: vs Nitrofen group; for VGEF / eNOS phosphorylation: P<0.05.
The subject of data set [5] is LPS-treated human peripheral blood monocytes. Nature of the data set: LPS-induced cytokine release in human monocytes enriched by negative selection. The data set is classed as cell-based. The note with it: for TNFα release: concentrations up to 50 μM. The text has this:
Preparation of Peripheral Blood Cells: Human peripheral blood was collected in sodium heparin (IRB#12-200A) or obtained as Leukopaks from New York Blood Center (New York, N.Y.). Mononuclear cells were isolated by density gradient centrifugation in Ficoll-Paque Plus (GE Healthcare; Pittsburgh, Pa.). Monocytes were either purified by two-hour adherence to Primaria culture plates (Corning Life Sciences; Corning, N.Y.) or enriched by negative magnetic selection using Monocyte Isolation Kit II (Miltenyi Biotech; Auburn, Calif.). All monocyte preps were cultured in RPMI supplemented with 10% human AB serum, 100 units/mL penicillin-streptomycin, and 2 mM L-glutamine and used within 24 hours. Macrophages were differentiated from adherence-purified monocytes by incubation with 10 ng/mL human M-CSF (Sigma) for seven days, with media replenishment performed on days 3 and 5.
Cytokine Production Assays: For LPS-induced cytokine release, negative selection-enriched monocytes (human) or mixed peripheral blood leukocytes (murine) were plated at a density of 2×10^5 cells/mL in 96-well plates. Cells were pre-treated with MIF inhibitors in 0.1% DMSO (final) for 1 hour before stimulation with LPS from E. coli R515 (Axxora; Farmingdale, N.Y.): 24 hours for human cells, 5 hours for murine cells. Cell-free supernatants were collected and stored at −80° C. for cytokine determinations by ELISA; 1:2 dilutions were used for TNFα and 1:3 dilutions for IL-8 and MCP-1.

Data set [6] has as its system LPS-stimulated human peripheral blood monocytes. The note with it: cited from earlier work.
The mark [7] stands for this setting: 1 h pre-treatment, 1 ng/mL LPS 24 h.

Take `CS(=O)(=O)Nc1cc2occ(NC=O)c(=O)c2cc1Oc1ccccc1` [Compound T-614, 3-formylamino-7-methylsulfonylamino-6-phenoxy-4H-1-benzopyran-4-one]: the “concentration at which TNFα is suppressed (as low as)” value in data set [1] was at most 10 µM. The oral bioavailability result in data set [2] is reported as “orally bioavailable”. In addition, the “serum TNFα, MIF−/− mice” value in data set [3] is “no significant effect”.

`COC(=O)CC1CC(c2ccc(O)cc2)=NO1` (centres unmarked) [ISO-1]: in data set [4], the “Arginase II” value was “significantly lower”, the VGEF result is given as “significant increase” and the eNOS phosphorylation result was “significant increase”. In data set [5] (setting [7]), the TNFα release entry is “moderate suppression”.

For the compound `CC(C)(C)COC(=O)CC1CC(c2ccc(O)c(F)c2)=NO1` (centres unmarked) [ISO-92], in data set [4], the “Arginase II” value was “significantly lower”, the VGEF entry is given as “significant increase” and the eNOS phosphorylation result was “significant increase”. Further, in data set [5] (setting [7]), the MCP-1 release result is “stronger suppressors of MCP-1 than TNFα” and the TNFα release result is recorded as “almost completely spared”.

For `N[C@H](Cc1cc(I)c(Oc2cc(I)c(O)c(I)c2)c(I)c1)C(=O)O` [d-T4], in data set [5] (setting [7]), the IL-8 release result is given as “moderate suppression” and the TNFα release entry is reported as “almost completely spared”.

Take `O=C(O/N=C/c1ccc(O)cc1)C1CCCCC1` [OXIM-11]: in data set [5] (setting [7]), the TNFα release result is “almost completely spared”. The “suppression of the cytokines analyzed (TNFα, MCP-1, IL-8)” value in data set [5] (LPS-treated monocytes) is on record as “minimal suppression”.

Regarding `COc1ccc2c(c1)c(CC(=O)O)c(C)n2C(=O)c1ccc(Cl)cc1` [indomethacin], in data set [6], the IL-1β intracellular accumulation entry is “increases intracellular accumulation” and the IL-1β release entry was “inhibits release”.

On to `Oc1ccc(-c2cnc3ccccn23)cc1O` [Compound K-664.1], for which, in data set [5] (setting [7]), the MCP-1 release result was “stronger suppressors of MCP-1 than TNFα” and the TNFα release entry is “moderate suppression”.
